Results from patent publication US8802597B2, “Herbicidal pyrimidines” (E I du Pont de Nemours and Company, priority 2003, dated 2014).

Columns and labels:
Format in all cases: in vivo
rice (Oryza sativa) = experiment: Test B flooded paddy test; conditions: Flood, 1000 g ai/ha; scale 0 to 100
Procedure: (§1) At the same time, plants selected from these crop and weed species and also blackgrass (Alopecurus myosuroides) and wild oat (Avena fatua) were treated with postemergence applications of test chemicals formulated in the same manner. Plants ranged in height from 2 to 18 cm (1- to 4-leaf stage) for postemergence treatments. Plant species in the flooded paddy test consisted of rice (Oryza sativa), umbrella sedge (Cyperus difformis), duck salad (Heteranthera limosa) and barnyardgrass (Echinochloa crus-galli) grown to the 2-leaf stage for testing. Treated plants and controls were maintained in a greenhouse for 13 to 15 days, after which time all species were compared to controls and visually evaluated. Plant response ratings, summarized in Table B, are based on a scale of 0 to 100 where 0 is no effect and 100 is complete control. A dash (-) response means no test result.

[1] = test system: barnyardgrass (Echinochloa crus-galli); experiment: Test B flooded paddy test; conditions: Flood, 1000 g ai/ha; scale 0 (no effect) to 100 (complete control)
Procedure: as §1

[2] = test system: duck salad (Heteranthera limosa); experiment: Test B flooded paddy test; conditions: Flood, 1000 g ai/ha; scale 0 to 100
Procedure: as §1

[3] = test system: umbrella sedge (Cyperus difformis); experiment: Test B flooded paddy test; conditions: Flood, 1000 g ai/ha; scale 0 to 100
Procedure: as §1

[4] = test system: pigweed (Amaranthus retroflexus); experiment: Test B pre/postemergence
Description: (§2) Seeds selected from barnyardgrass (Echinochloa crus-galli), Surinam grass (Brachiaria decumbens), cocklebur (Xanthium strumarium), corn (Zea mays), crabgrass (Digitaria sanguinalis), giant foxtail (Setaria faberii), lambsquarters (Chenopodium album), morningglory (Ipomoea coccinea), pigweed (Amaranthus retroflexus), velvetleaf (Abutilon theophrasti), and wheat (Triticum aestivum) were planted and treated preemergence with test chemicals formulated in a non-phytotoxic solvent mixture which included a surfactant.
as §1

[5] = test system: lambsquarters (Chenopodium album); experiment: Test B pre/postemergence
Description: as §2, §1

[6] = test system: velvetleaf (Abutilon theophrasti); experiment: Test B pre/postemergence
Description: as §2, §1

corn (Zea mays) = experiment: Test B pre/postemergence
Description: as §2, §1

[7] = test system: giant foxtail (Setaria faberii); experiment: Test B pre/postemergence
Description: as §2, §1

[8] = test system: barnyardgrass (Echinochloa crus-galli); experiment: Test B pre/postemergence
Description: as §2, §1

[9] = test system: wheat (Triticum aestivum); experiment: Test B pre/postemergence
Description: as §2, §1

[10] = test system: morningglory (Ipomoea coccinea); experiment: Test B pre/postemergence
Description: as §2, §1

[11] = test system: crabgrass (Digitaria sanguinalis); experiment: Test B pre/postemergence
Description: as §2, §1

[12] = test system: Surinam grass (Brachiaria decumbens); experiment: Test B pre/postemergence
Description: as §2, §1

[13] = test system: cocklebur (Xanthium strumarium); experiment: Test B pre/postemergence
Description: as §2, §1

[14] = test system: blackgrass (Alopecurus myosuroides); experiment: Test B postemergence; conditions: for Blackgrass plant response rating: 125 g ai/ha, scale 0 to 100 (0 no effect, 100 complete control); for Plant response rating, Blackgrass: 500 g ai/ha, scale 0 to 100
Summary of the method: (§3)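 Test chemicals in a non-phytotoxic solvent mixture with surfactant were applied preemergence to planted seeds and postemergence to plants 2 to 18 cm tall (1- to 4-leaf stage). After 13 to 15 days in a greenhouse, injury was visually rated against untreated controls on a 0 to 100 scale.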

wild oat (Avena fatua) = experiment: Test B postemergence; conditions: for Oat, Wild plant response rating: 125 g ai/ha, scale 0 to 100 (0 no effect, 100 complete control); for Plant response rating, Oat, Wild: 500 g ai/ha, scale 0 to 100
Summary of the method: as §3

[15] = Postemergence, 125 g ai/ha, scale 0 to 100 (0 no effect, 100 complete control)
[16] = Postemergence, 500 g ai/ha, scale 0 to 100
[17] = Preemergence, 125 g ai/ha, scale 0 to 100 (0 no effect, 100 complete control)
[18] = Preemergence, 500 g ai/ha, scale 0 to 100 (0 no effect, 100 complete control)

Compound: CCOC(=O)c1nc(C2CC2)nc(NCCOC)c1Br [Compound 39]
- Plant response rating, Rice (rice (Oryza sativa)): 0
- Plant response rating, Barnyardgrass [1]: 0
- Plant response rating, Ducksalad [2]: 0
- Plant response rating, Sedge, Umbrella [3]: 0
- Pigweed plant response rating [4, 15]: 50
- Plant response rating, Pigweed [4, 16]: 70
- Plant response rating, Pigweed [4, 17]: 70
- Pigweed plant response rating [4, 18]: 100
- Lambsquarters plant response rating [5, 15]: 70
- Plant response rating, Lambsquarters [5, 16]: 90
- Plant response rating, Lambsquarters [5, 17]: 50
- Lambsquarters plant response rating [5, 18]: 100
- Velvetleaf plant response rating [6, 15]: 40
- Plant response rating, Velvetleaf [6, 16]: 70
- Plant response rating, Velvetleaf [6, 17]: 0
- Velvetleaf plant response rating [6, 18]: 30
- Corn plant response rating (corn (Zea mays); [15]): 0
- Plant response rating, Corn (corn (Zea mays); [16]): 50
- Plant response rating, Corn (corn (Zea mays); [17]): 30
- Corn plant response rating (corn (Zea mays); [18]): 50
- Foxtail, Giant plant response rating [7, 15]: 0
- Plant response rating, Foxtail, Giant [7, 16]: 30
- Plant response rating, Foxtail, Giant [7, 17]: 0
- Foxtail, Giant plant response rating [7, 18]: 20
- Barnyardgrass plant response rating [8, 15]: 0
- Plant response rating, Barnyardgrass [8, 16]: 70
- Plant response rating, Barnyardgrass [8, 17]: 0
- Barnyardgrass plant response rating [8, 18]: 20
- Wheat plant response rating [9, 15]: 0
- Plant response rating, Wheat [9, 16]: 0
- Plant response rating, Wheat [9, 17]: 0
- Plant response rating, Wheat [9, 18]: 10
- Morningglory plant response rating [10, 15]: 80
- Plant response rating, Morningglory [10, 16]: 100
- Plant response rating, Morningglory [10, 17]: 30
- Morningglory plant response rating [10, 18]: 70
- Crabgrass plant response rating [11, 15]: 0
- Plant response rating, Crabgrass [11, 16]: 40
- Plant response rating, Crabgrass [11, 17]: 0
- Crabgrass plant response rating [11, 18]: 50
- Surinam Grass plant response rating [12, 15]: 0
- Plant response rating, Surinam Grass [12, 16]: 30
- Plant response rating, Surinam Grass [12, 17]: 0
- Surinam Grass plant response rating [12, 18]: 0
- Cocklebur plant response rating [13, 15]: 30
- Plant response rating, Cocklebur [13, 16]: 50
- Plant response rating, Cocklebur [13, 17]: 10
- Cocklebur plant response rating [13, 18]: 30
- Blackgrass plant response rating [14]: 0
- Plant response rating, Blackgrass [14]: 0
- Oat, Wild plant response rating (wild oat (Avena fatua)): 0
- Plant response rating, Oat, Wild (wild oat (Avena fatua)): 0

Compound: CON=Cc1nc(C2CC2)nc(N)c1Br [Compound 48]
- Plant response rating, Rice (rice (Oryza sativa)): 0
- Plant response rating, Barnyardgrass [1]: 20
- Plant response rating, Ducksalad [2]: 20
- Plant response rating, Sedge, Umbrella [3]: 0
- Pigweed plant response rating [4, 15]: 60
- Plant response rating, Pigweed [4, 16]: 80
- Plant response rating, Pigweed [4, 17]: 60
- Pigweed plant response rating [4, 18]: 80
- Lambsquarters plant response rating [5, 15]: 60
- Plant response rating, Lambsquarters [5, 16]: 80
- Plant response rating, Lambsquarters [5, 17]: 70
- Lambsquarters plant response rating [5, 18]: 100
- Velvetleaf plant response rating [6, 15]: 10
- Plant response rating, Velvetleaf [6, 16]: 60
- Plant response rating, Velvetleaf [6, 17]: 0
- Velvetleaf plant response rating [6, 18]: 0
- Corn plant response rating (corn (Zea mays); [15]): 0
- Plant response rating, Corn (corn (Zea mays); [16]): 0
- Plant response rating, Corn (corn (Zea mays); [17]): 0
- Corn plant response rating (corn (Zea mays); [18]): 0
- Foxtail, Giant plant response rating [7, 15]: 10
- Plant response rating, Foxtail, Giant [7, 16]: 10
- Plant response rating, Foxtail, Giant [7, 17]: 30
- Foxtail, Giant plant response rating [7, 18]: 50
- Barnyardgrass plant response rating [8, 15]: 10
- Plant response rating, Barnyardgrass [8, 16]: 20
- Plant response rating, Barnyardgrass [8, 17]: 0
- Barnyardgrass plant response rating [8, 18]: 10
- Wheat plant response rating [9, 15]: 0
- Plant response rating, Wheat [9, 16]: 20
- Plant response rating, Wheat [9, 17]: 0
- Plant response rating, Wheat [9, 18]: 30
- Morningglory plant response rating [10, 15]: 30
- Plant response rating, Morningglory [10, 16]: 80
- Plant response rating, Morningglory [10, 17]: 0
- Morningglory plant response rating [10, 18]: 30
- Crabgrass plant response rating [11, 15]: 10
- Plant response rating, Crabgrass [11, 16]: 20
- Plant response rating, Crabgrass [11, 17]: 10
- Surinam Grass plant response rating [12, 15]: 0
- Plant response rating, Surinam Grass [12, 16]: 10
- Plant response rating, Surinam Grass [12, 17]: 30
- Surinam Grass plant response rating [12, 18]: 60
- Cocklebur plant response rating [13, 15]: 20
- Plant response rating, Cocklebur [13, 16]: 80
- Plant response rating, Cocklebur [13, 17]: 0
- Cocklebur plant response rating [13, 18]: 20
- Blackgrass plant response rating [14]: 0
- Plant response rating, Blackgrass [14]: 20
- Oat, Wild plant response rating (wild oat (Avena fatua)): 0
- Plant response rating, Oat, Wild (wild oat (Avena fatua)): 20
